In one experiment the target is T1, PI3K beta (Homo sapiens, UniProt P42338).
T1 construct: for the full-length p110-b subunit are generated and fused by overlapping PCR; p85(iSH2) fusion partner (see partner chain) (N); His tag (C); made in house; host or cells: baculovirus; Tn5 (Trichoplusia ni) or TiniPro insect cells
The experiment in a line: PI3K beta kinase assay (Kinase-Glo luminescence). The class given is biochemical. The procedure: (§1) In a more preferred assay, the kinase reaction is performed in a final volume of 10 μL per well of a low volume non binding CORNING, 384 well black plate (Cat. No. #3676). The final concentrations of ATP and phosphatidyl inositol (PI) in the assay are 1 μM and 10 μg/mL respectively. The reaction is started by the addition of ATP.
(§2) The components of the assay are added per well as follows:
(§3) […] in 90% DMSO per well, in columns 1-20, 8 concentrations (1/3 and 1/3.33 serial dilution step) in single. • Low control: […] of 90% DMSO in half the wells of columns 23-24 (0.45% in final). • High control: […] of reference compound (e.g. compound of Example 7 in WO 2006/122806) in the other half of columns 23-24 (2.5 μM in final). • Standard: […] of reference compound as just mentioned diluted as the test compounds in columns 21-22 • 20 mL ‘buffer’ are prepared per assay: • 200 μL of 1M TRIS HCl pH7.5 (10 mM in final) • 60 μL of 1M MgCl2 (3 mM in final) • 500 μL of 2M NaCl (50 mM in final) • 100 μL of 10% CHAPS (0.05% in final) • 200 μL of 100 mM DTT (1 mM in final) • 18.94 mL of nanopure water • 10 mL ‘PI’ are prepared per assay: • 200 μL of 1 mg/ml L-alpha-Phosphatidylinositol (Liver Bovine, Avanti Polar Lipids Cat. No. 840042C MW=909.12) prepared in 3% OctylGlucoside (10 μg/ml in final) • 9.8 mL of ‘buffer’ • 10 mL ‘ATP’ are prepared per assay: • 6.7 μL of 3 mM stock of ATP giving a final concentration of 1 μM per well • 10 mL of ‘buffer’ • 2.5 mL of each PI3K construct are prepared per assay in ‘PI’ with the following final concentration: • 10 nM PI3K alfa EMV B1075 • 25 nM beta EMV BV949 • 10 nM delta EMV BV1060 • 150 nM gamma EMV BV950 • 5 μL of ‘PI/PI3K’ are added per well. • 5 μl ‘ATP’ are added per well to start the reaction. • The plates are then incubated at room temperature for 60 minutes (alfa, beta, delta) or 120 minutes (gamma). • The reaction is terminated by the addition of 10 μL Kinase-Glo (Promega Cat. No. #6714). • The assay plates are read after 10 minutes in Synergy 2 reader (BioTek, Vermont USA) with an integration time of 100 milliseconds and sensitivity set to 191. • Output: The High control is around 60'000 counts and the Low control is 30'000 or lower • This luminescence assay gives a useful Z′ ratio between 0.4 and 0.7
PI3Kβ BV-949 p85(iSH2)-Gly Linker-p110b(Full-Length)-C-Term his Tag
(§4) IC50 is determined by a four parameter curve fitting routine that comes along with “excel fit”. […] Alternatively, IC50 values are calculated using idbsXLfit model 204, which is a 4 parameter logistic model.
For orientation: Kinase-Glo measures the ATP left after a reaction by luminescence.

For a further experiment, the target named is T2, mTOR (Homo sapiens, UniProt P42345).
T2 construct: purchased Invitrogen Corporation (Carlsbad/CA, USA) PV4753
The experiment can be described thus: Biochemical assay for m-TOR by TR-FRET. The settings on record: 8 μM ATP, 400 nM GFP-4EBP1, 0.5 nM mTOR. The procedure: Biochemical Assay for m-TOR by TR-FRET.
Assay components are purchased from Invitrogen Corporation (Carlsbad/CA, USA): GFP-4EBP1 (Cat. No. PV4759), Tb3+-α-p4EBP1 [pThr46] Antibody (Cat. No. PV4757), proprietary TR-FRET dilution buffer (Cat. No. PV3574), mTOR protein (Cat. No. PV4753).
Then 5 μL of ATP (8 μM final concentration) and GFP-4EBP1 (400 nM final concentration) with 5 μL mTOR proteins (0.5 nM final concentration) are incubated at rt. The standard reaction buffer for the TR-FRET mTOR assay contained 50 mM HEPES pH 7.5, 10 mM MnCl2, 50 mM NaCl, 1 mM EGTA, 1 mM DTT. Reactions were stopped with 10 μL of a mixture of EDTA containing the Tb3+-α-p4EBP1-[pT46] detection Ab (0.5 nM) in TR-FRET dilution buffer (proprietary to IVG). Plates are read 15 mins later in a Synergy2 reader using an integration time of 0.2 seconds and a delay of 0.1 seconds. […] A standard compound is used as a reference compound and included in all assay plates in the form of 16 dilution points in duplicate.
(In general: TR-FRET usually uses a lanthanide donor and a delayed reading to cut background.)

The next experiment addresses T3, PI3K alpha (Homo sapiens, UniProt P42336).
T3 construct: p85(iSH2) fusion partner (see partner chain) (N); His tag (C); made in house; host or cells: baculovirus; Tn5 (Trichoplusia ni) or TiniPro insect cells
The experiment can be described thus: PI3K alpha kinase assay (Kinase-Glo luminescence). Type of experiment: biochemical. As for the experimental part: as §1, §2, §3
Two different constructs, BV 1052 and BV 1075, are used to generate the PI3 Kinase a proteins for compound screening.
as §4

For the next experiment, the target named is T4, PI3K delta (Homo sapiens, UniProt O00329).
T4 construct: for the full-length p110-d subunit are generated and fused by overlapping PCR; p85(iSH2) fusion partner (see partner chain) (N); His tag (C); made in house; host or cells: baculovirus; Tn5 (Trichoplusia ni) or TiniPro insect cells
The experiment can be described thus: PI3K delta kinase assay (Kinase-Glo luminescence). The class given is biochemical. The procedure: as §1, §2, §3
PI3Kγ BV-1060 p85(iSH2)-Gly Linker-p110d(Full-Length)-C-Term his Tag
as §4

Experiment [1] deals with PKB Ser473 phosphorylation in Rat1-myr-HA-p110 beta cells. The experiment can be described thus: Reverse protein array assay, PKB Ser473 phosphorylation in Rat1-myr-p110 beta cells. The class given is cell-based. The settings on record: 0.5 h, pAkt Ser473, 30 minutes incubation, read-out: p-PKB IC50. As for the experimental part:
(§5) The Rat1-myr-HA-p110 alpha, beta and delta cells were trypsinized and counted with a CASY TT cell counter (Schärfe System GmbH, Reutlingen Germany). […] The plates were incubated at 37° C. and 5% CO2 under humidified condition for at least 20 h. Compound of formula I working solutions were prepared freshly as serial 8 step dilutions (vol/vol) in DMSO on the day of the experiment. […] The final DMSO concentration was kept constant at 0.2%. cell culture medium containing 0.2% DMSO was used as vehicle treatment control. Post incubation, the cells were treated with the serial compound dilution. 50 μl of the compound medium mixture was added to the wells containing cells and 150 μl DMEM medium and incubated for 30 minutes (37° C., 5% CO2). After 30 minutes of incubation, the medium mixture was quickly removed by aspiration. […] 50 μl of the described lysis buffer mix was added to each well, followed by 10 minutes of incubation on ice.
(§6) The samples were spotted onto ZeptoMARKt PWG protein microarray chips (Zeptosens, Witterswil, Switzerland) with the piezoelectric microdispense-based, non-contact Nano-Plotter 2.1 (GeSiM, Grosserkmannsdorf, Germany). Each sample was spotted at 4 different sample concentrations (d1=100%, d2=75%, d3=50%, d4=25%) by diluting the cell lysate with the corresponding volume of lysis buffer mix. After spotting the ZeptoMARK® protein microarrays, the chips are incubated for 1 hour at 37° C. […] After 20 minutes of blocking the chips are extensively rinsed with deionized water (Milli-Q quality, 18MΩ×cm) and dried in a nitrogen air flow.
(§7) After incubation, the arrays were washed twice with 200 μl CAB1 buffer. […] The fluorescence signal was assessed with exposure times of 1, 3, 5 and 10 seconds, depending on the intensity of the signal. The resulting four images taken per array are stored as 16-bit TIF files.
(§8) The fluorescence images for each array were analyzed with the ZeptoVIEW Pro 2.0 software (Zeptosens, Witterswil, Switzerland) and the relative fluorescence intensity for each signal was calculated.

Experiment [2] has as its system PKB Ser473 phosphorylation in Rat1-myr-HA-p110 alpha cells. The experiment can be described thus: Reverse protein array assay, PKB Ser473 phosphorylation in Rat1-myr-p110 alpha cells. Type of experiment: cell-based. The settings on record: 0.5 h, pAkt Ser473, 30 minutes compound incubation, read-out: p-PKB IC50. As for the experimental part: as §5, §6, §7, §8

Experiment [3] deals with PKB Ser473 phosphorylation in Rat1-myr-HA-p110 delta cells. The experiment can be described thus: Reverse protein array assay, PKB Ser473 phosphorylation in Rat1-myr-p110 delta cells. Type of experiment: cell-based. Particulars: read-out: p-PKB IC50. The procedure: as §5, §6, §7, §8
The test system of experiment [4] is S6 Ribosomal Protein phosphorylation Ser235/236 in TSC1 null mouse embryo fibroblast (MEF) cells. The experiment in a line: Reverse protein array assay, S6 Ribosomal Protein phosphorylation Ser235/236 in TSC1 null MEF cells. Type of experiment: cell-based. Particulars: 1 h, pS6 ribosomal protein Ser235/236, 60 minutes incubation, read-out: p-S6 IC50. The procedure: as §5, with “TSC1−/−” for “Rat1-myr-HA-p110 alpha, beta and delta”, “(Schirfe” for “(Schärfe”, “Working” for “Compound of formula I working”, “0.02%.” for “0.2%.”, “0.02%” for “0.2%”, “60” for “30”
The spotting of the chips follows the previous described method.

T4 sequence (O00329 with tags, fused parts or gaps limits assumed): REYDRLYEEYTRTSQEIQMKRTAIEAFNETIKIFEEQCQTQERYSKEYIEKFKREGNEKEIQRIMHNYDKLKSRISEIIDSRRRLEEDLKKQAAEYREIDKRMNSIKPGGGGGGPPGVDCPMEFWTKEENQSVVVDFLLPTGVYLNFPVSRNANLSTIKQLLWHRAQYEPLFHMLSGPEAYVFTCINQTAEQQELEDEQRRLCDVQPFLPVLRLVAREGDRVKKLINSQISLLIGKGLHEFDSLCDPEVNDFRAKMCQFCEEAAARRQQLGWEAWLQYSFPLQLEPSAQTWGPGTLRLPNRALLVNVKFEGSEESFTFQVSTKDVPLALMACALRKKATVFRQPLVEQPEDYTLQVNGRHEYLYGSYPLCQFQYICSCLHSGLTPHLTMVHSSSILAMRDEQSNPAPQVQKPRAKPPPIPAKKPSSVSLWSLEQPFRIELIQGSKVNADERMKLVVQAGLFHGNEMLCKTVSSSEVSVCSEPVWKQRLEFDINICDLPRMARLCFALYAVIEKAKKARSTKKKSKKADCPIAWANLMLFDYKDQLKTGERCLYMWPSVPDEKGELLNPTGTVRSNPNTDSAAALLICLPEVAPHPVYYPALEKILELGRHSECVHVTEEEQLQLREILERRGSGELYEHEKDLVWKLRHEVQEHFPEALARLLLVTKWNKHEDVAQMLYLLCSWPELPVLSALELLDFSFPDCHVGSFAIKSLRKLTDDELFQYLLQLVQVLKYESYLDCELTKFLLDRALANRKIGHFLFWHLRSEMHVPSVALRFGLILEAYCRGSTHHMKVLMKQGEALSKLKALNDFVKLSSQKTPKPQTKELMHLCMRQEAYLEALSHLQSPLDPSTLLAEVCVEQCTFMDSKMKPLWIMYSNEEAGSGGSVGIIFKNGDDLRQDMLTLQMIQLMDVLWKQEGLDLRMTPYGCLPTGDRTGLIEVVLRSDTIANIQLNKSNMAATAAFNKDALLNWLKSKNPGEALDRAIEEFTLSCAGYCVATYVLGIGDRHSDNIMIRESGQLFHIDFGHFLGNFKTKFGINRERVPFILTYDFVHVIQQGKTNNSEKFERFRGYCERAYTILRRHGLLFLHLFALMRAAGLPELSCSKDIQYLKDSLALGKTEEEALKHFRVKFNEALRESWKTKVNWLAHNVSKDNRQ
T3 sequence (P42336 with tags, fused parts or gaps limits assumed): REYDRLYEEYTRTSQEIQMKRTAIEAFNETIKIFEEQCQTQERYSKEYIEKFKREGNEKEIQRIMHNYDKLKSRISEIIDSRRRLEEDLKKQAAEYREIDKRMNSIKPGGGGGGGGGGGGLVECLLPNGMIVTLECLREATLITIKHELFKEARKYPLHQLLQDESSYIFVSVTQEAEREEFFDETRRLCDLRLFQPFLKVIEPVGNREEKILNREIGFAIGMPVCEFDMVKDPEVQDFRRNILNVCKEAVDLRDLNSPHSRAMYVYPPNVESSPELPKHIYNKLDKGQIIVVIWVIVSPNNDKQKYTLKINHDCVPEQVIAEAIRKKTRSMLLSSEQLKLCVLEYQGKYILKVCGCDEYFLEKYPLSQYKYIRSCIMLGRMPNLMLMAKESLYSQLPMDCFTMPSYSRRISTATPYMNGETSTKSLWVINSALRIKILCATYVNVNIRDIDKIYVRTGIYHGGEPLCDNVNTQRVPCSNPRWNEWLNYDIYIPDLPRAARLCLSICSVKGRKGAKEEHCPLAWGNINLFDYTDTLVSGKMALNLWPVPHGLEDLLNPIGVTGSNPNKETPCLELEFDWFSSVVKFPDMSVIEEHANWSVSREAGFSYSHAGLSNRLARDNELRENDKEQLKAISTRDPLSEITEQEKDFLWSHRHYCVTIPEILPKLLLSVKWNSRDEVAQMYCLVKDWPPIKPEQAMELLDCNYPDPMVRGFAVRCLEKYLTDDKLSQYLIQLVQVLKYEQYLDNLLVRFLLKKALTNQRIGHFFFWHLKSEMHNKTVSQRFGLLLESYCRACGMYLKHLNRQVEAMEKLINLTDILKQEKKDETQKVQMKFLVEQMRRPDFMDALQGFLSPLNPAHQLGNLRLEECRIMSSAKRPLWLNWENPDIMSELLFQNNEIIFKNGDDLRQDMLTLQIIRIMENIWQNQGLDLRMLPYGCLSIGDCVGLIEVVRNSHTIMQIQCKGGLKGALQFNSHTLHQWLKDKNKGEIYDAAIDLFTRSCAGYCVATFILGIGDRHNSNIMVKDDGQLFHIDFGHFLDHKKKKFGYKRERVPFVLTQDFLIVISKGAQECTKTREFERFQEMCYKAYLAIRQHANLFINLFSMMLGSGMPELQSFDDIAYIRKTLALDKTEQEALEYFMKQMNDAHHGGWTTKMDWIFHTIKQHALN
T2 sequence (P42345 1360-2549 limits assumed): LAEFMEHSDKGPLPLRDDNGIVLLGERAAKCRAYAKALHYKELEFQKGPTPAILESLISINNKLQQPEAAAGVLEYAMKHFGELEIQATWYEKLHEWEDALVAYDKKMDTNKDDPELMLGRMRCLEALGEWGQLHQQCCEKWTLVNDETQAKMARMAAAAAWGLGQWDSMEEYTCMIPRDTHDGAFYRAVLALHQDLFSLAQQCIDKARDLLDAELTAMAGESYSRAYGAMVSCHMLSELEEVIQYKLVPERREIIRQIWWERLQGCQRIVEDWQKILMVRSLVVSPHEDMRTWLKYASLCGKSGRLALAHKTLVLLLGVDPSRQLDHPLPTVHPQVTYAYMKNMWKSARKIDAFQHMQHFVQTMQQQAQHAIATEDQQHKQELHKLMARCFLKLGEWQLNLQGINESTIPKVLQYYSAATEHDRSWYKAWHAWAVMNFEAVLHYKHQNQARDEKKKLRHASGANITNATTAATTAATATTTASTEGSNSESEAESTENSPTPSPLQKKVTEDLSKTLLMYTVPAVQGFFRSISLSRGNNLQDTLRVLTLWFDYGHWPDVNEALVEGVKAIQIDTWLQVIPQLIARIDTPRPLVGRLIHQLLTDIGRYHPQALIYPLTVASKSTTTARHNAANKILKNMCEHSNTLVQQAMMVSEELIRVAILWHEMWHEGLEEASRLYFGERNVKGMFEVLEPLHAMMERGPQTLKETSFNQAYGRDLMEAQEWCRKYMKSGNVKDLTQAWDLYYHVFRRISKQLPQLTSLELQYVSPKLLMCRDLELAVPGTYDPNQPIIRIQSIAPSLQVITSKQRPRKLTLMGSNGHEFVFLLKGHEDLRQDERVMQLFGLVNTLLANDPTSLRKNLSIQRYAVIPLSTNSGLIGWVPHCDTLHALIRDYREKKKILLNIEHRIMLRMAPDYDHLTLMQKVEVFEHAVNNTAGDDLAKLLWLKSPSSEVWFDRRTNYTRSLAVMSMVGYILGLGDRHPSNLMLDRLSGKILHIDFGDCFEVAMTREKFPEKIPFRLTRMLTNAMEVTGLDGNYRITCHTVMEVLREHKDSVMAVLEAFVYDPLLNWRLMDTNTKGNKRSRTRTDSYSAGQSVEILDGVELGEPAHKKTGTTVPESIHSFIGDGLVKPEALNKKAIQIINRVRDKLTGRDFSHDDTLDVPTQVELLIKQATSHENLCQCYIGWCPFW
T1 sequence (P42338 with tags, fused parts or gaps limits assumed): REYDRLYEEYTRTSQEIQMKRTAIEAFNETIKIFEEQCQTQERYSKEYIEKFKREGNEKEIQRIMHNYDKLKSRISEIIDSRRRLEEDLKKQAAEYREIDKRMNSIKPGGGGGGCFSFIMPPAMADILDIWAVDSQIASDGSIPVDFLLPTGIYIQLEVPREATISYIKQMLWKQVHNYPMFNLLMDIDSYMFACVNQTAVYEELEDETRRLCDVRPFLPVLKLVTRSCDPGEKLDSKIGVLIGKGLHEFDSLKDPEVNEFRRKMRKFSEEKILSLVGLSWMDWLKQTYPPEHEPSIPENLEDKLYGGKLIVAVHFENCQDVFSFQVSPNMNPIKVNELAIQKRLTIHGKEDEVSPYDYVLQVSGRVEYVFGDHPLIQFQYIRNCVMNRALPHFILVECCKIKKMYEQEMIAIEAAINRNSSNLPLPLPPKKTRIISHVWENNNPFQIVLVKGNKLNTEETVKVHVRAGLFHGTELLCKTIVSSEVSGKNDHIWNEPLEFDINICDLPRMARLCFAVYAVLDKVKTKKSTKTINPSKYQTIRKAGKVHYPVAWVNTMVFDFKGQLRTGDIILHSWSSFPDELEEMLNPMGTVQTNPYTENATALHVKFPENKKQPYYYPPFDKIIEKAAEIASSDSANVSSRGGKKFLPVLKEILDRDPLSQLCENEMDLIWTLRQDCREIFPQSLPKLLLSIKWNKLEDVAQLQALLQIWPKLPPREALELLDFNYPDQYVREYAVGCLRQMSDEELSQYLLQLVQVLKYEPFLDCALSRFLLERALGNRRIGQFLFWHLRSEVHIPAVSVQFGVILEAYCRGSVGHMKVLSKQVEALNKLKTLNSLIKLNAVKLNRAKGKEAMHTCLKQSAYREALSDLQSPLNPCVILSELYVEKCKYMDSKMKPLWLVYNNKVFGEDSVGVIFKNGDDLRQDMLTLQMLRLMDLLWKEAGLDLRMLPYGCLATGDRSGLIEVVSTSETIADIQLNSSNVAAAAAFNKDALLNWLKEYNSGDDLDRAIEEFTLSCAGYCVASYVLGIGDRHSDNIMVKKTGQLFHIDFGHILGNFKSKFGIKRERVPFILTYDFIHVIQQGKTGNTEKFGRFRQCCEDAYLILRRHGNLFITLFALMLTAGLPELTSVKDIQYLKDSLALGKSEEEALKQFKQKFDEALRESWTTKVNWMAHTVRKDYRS

Take `CCn1cc(-n2c(=O)n(C)c3cnc4ccc(-c5cnc(NC)c(COC)c5)cc4c32)c(C)n1` [Example 248.2, 1-(1-Ethyl-3-methyl-1H-pyrazol-4-yl)-8-(5-methoxymethyl-6-methylamino-pyridin-3-yl)-3-methyl-1,3-dihydro-imidazo[4,5-c]quinolin-2-one]: the IC50 (as a rule, the concentration that inhibits the measured activity by half) at PI3K beta turned out to be 0.022 µM; at mTOR, 0.015 µM; on PI3K alpha, 0.008 µM; at PI3K delta it was 0.003 µM.

Regarding `CCn1cc(-n2c(=O)n(C)c3cnc4ccc(-c5cnc(CO)c(NC)c5)cc4c32)c(C)n1` [Example 158.5, 1-(1-Ethyl-3-methyl-1H-pyrazol-4-yl)-8-(6-hydroxymethyl-5-methylamino-pyridin-3-yl)-3-methyl-1,3-dihydro-imidazo[4,5-c]quinolin-2-one], the 50% inhibitory concentration (IC50) at PI3K beta amounted to 0.021 µM; at mTOR, 0.003 µM; at PI3K alpha it was 0.014 µM; on PI3K delta, 0.007 µM.

Consider `Cc1ccc(-c2ccc3ncc4c(c3c2)n(-c2cc(C)nn2C)c(=O)n4C)cn1` [Example 7.1, 1-(2,5-Dimethyl-2H-pyrazol-3-yl)-3-methyl-8-(6-methyl-pyridin-3-yl)-1,3-dihydro-imidazo[4,5-c]quinolin-2-one], for which the IC50 on PI3K beta was 0.404 µM; at mTOR, 0.105 µM; on PI3K alpha, 0.046 µM; on PI3K delta, 0.068 µM.

On to `Cc1nn(CC(=O)N2CCOCC2)cc1-n1c(=O)n(C)c2cnc3ccc(-c4cnc(N5CCCC5)nc4)cc3c21` [Example 247.3, 3-Methyl-1-[3-methyl-1-(2-morpholin-4-yl-2-oxo-ethyl)-1H-pyrazol-4-yl]-8-(2-pyrrolidin-1-yl-pyrimidin-5-yl)-1,3-dihydro-imidazo[4,5-c]quinolin-2-one], for which the IC50 came out at 0.24 µM in experiment [1]; 0.175 µM in experiment [2]; 0.636 µM in experiment [3]; 0.028 µM on mTOR; 0.163 µM on PI3K alpha; 0.035 µM in experiment [4].

As for `COc1nc2cc(-c3ccc4ncc5c(c4c3)n(-c3cn(C)nc3C)c(=O)n5C)cnc2n1C` [Example 71, 1-(1,3-Dimethyl-1H-pyrazol-4-yl)-8-(2-methoxy-3-methyl-3H-imidazo[4,5-b]pyridin-6-yl)-3-methyl-1,3-dihydro-imidazo[4,5-c]quinolin-2-one], the 50% inhibitory concentration (IC50) in experiment [1] was found to be 0.11 µM; in experiment [2] it was 0.037 µM; in experiment [3] it was 0.377 µM; at mTOR, 0.564 µM; in experiment [4], 0.013 µM; on PI3K delta, 0.262 µM.

In the case of `CCn1c(=O)n(C)c2ncc(-c3ccc4ncc5c(c4c3)n(-c3cn(C)nc3C)c(=O)n5C)cc21` [Example 68, 1-(1,3-Dimethyl-1H-pyrazol-4-yl)-8-(1-ethyl-3-methyl-2-oxo-2,3-dihydro-1H-imidazo[4,5-b]pyridin-6-yl)-3-methyl-1,3-dihydro-imidazo[4,5-c]quinolin-2-one], the half-inhibitory concentration (IC50) in experiment [1] stood at 0.092 µM; at PI3K beta, 0.061 µM; in experiment [3], 0.071 µM; on mTOR it was 0.462 µM; on PI3K alpha, 0.021 µM; at PI3K delta, 0.029 µM.

In the case of `CNc1ncc(-c2ccc3ncc4c(c3c2)n(-c2c(C)nn(C)c2C)c(=O)n4C)cc1COC` [Example 248.5, 8-(5-Methoxymethyl-6-methylamino-pyridin-3-yl)-3-methyl-1-(1,3,5-trimethyl-1H-pyrazol-4-yl)-1,3-dihydro-imidazo[4,5-c]quinolin-2-one], the IC50 at PI3K beta is 0.144 µM; at mTOR it was 0.565 µM; on PI3K alpha it was 0.032 µM; at PI3K delta, 0.014 µM.
